Patent US11180487B2, “Substituted cyanoindoline derivatives as NIK inhibitors” (Janssen Pharmaceutica NV, priority 2016, dated 2021)
Where two headings read alike, the source gives them in different places.

Legend:
[1] = target: recombinant human NF-kappaB-inducing kinase (NIK/MAP3K14) (Homo sapiens, UniProt Q99558); experiment: Inhibition of auto-phosphorylation of recombinant human NIK/MAP3K14 activity (AlphaScreen), Biological Assay A; format: biochemical; conditions: averaged values over all measurements on all batches
Chain of recombinant human NF-kappaB-inducing kinase (NIK/MAP3K14) (Q99558 whole entry): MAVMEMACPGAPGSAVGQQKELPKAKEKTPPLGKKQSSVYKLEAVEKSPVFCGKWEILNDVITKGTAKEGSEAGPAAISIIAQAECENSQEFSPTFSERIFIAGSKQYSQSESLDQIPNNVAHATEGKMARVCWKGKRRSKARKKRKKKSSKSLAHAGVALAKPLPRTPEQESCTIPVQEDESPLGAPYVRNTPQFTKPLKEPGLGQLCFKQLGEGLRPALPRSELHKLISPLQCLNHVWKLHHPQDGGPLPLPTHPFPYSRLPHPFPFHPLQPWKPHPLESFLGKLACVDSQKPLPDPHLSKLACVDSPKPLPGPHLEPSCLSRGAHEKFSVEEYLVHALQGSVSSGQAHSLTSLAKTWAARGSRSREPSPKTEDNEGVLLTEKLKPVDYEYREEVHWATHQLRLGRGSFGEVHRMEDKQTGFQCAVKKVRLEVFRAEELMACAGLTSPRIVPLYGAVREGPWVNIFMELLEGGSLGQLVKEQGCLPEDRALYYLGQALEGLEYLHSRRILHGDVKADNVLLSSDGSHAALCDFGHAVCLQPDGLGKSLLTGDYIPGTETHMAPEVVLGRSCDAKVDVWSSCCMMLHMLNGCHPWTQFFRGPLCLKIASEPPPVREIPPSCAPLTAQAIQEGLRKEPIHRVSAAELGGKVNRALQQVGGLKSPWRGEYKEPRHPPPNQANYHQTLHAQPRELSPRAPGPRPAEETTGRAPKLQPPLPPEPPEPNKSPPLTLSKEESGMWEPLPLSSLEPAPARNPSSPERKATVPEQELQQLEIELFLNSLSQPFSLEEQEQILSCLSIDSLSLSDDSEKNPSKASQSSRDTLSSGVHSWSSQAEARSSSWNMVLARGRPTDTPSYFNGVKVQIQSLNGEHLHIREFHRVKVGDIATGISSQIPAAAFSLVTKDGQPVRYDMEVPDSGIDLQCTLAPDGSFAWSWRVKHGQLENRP
Summary of the method: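 GST-tagged enzyme (0.2 nM) incubated with compound and 25 μM ATP in 50 mM Tris pH 7.5, 5 mM MgCl2, 1 mM EGTA, 1 mM DTT, 0.1 mM Na3VO4, 1% DMSO, 1 h at 25 °C. Stopped with anti-phospho-IKK Ser176/180 antibody; AlphaScreen bead read, blank-subtracted, IC50 from sigmoidal fit.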

[2] = test system: P-IKKα levels in L363 (NIK translocated multiple myeloma) cells; experiment: Effect of compounds on P-IKKα levels in L363 cells (Mesoscale sandwich immuno-assay), Biological Assay B; format: cell-based, human; conditions: 2 hr treatment, averaged values, read-out: Inhibition of pIKKα_L-363 (IC50 (nM))
Summary of the method: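 L363 NIK-translocated myeloma cells primed 24 h with 1 μg/ml BAFF (stock), then treated 2 h with compound (1% DMSO, 8-point 1:3 dilutions). Lysate P-IKKα measured by Mesoscale sandwich immunoassay; MG132+BAFF controls, blank with 10 μM ADS125117 subtracted. IC50 from sigmoidal fit of % inhibition versus log concentration.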

[3] = test system: JJN-3 (NIK translocated) multiple myeloma cells; experiment: Antiproliferative activity on JJN-3 multiple myeloma cells (CellTiter-Glo, 96 hr), Biological Assay C; format: cell-based, human; conditions: JJN-3 (NIK translocated) cells, averaged values, read-out: JJN-3 Proliferation inhibition (IC50 (nM))
Summary of the method: (§1)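 JJN-3 and KMS12-BM cells in RPMI 1640 with 10% FCS were plated at 15000–20000 cells/well and treated 96 h with a 9-point 1:3 dilution series (0.3% DMSO). Viability read by CellTiter-Glo luminescence, blank (time-zero cells) subtracted, expressed as % of untreated control; duplicate wells.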

[4] = test system: KMS12-BM (NIK WT) multiple myeloma cells; experiment: Antiproliferative activity on KMS12-BM multiple myeloma cells (CellTiter-Glo, 96 hr), Biological Assay C; format: cell-based, human; conditions: averaged values, read-out: KMS-12 Proliferation inhibition (IC50 (nM))
Summary of the method: as §1

SMILES	IC50 [1] [nM]	IC50 ([2]; Homo sapiens, L-363, 2 h) [nM]	IC50 ([3]; Homo sapiens, JJN-3, 96 h) [nM]	IC50 ([4]; Homo sapiens, KMS-12-BM, 96 h) [nM]	melting point [°C]	IC50 [2] [nM]	IC50 [3] [nM]	IC50 [4] [nM]
CNC(=O)c1cc(Nc2nccc(-c3cc(C#N)c4c(c3)[C@@](C)(CO)CN4)n2)c(F)cc1F [Compound 165]	3.6	6	1120	~5250	224			
Cc1ccc(C#N)cc1Nc1nccc(-c2cc(C#N)c3c(c2)[C@@](C)(CO)CN3)n1 [Compound 129]	1.4				190	3.2	330	~7940
C[C@]1(CO)CNc2c(C#N)cc(-c3ccnc(Nc4cc(C#N)ccc4OCCO)n3)cc21 [Compound 8]	1.3	32.4	87	> 10000	184			
Cc1ccc(C#N)cc1Nc1nccc(-c2cc(C#N)c3c(c2)[C@@](C)(COC(=O)CN)CN3)n1 [Compound 137]	6	2.7	545	~10000	290			
COc1cc(C(=O)NC2CCOCC2)c(Cl)cc1Nc1nccc(-c2cc(C#N)c3c(c2)C(C)(C)CN3)n1 [Compound 108]	11	3.8	39	> 3980	> 260			
COc1cc(P(C)(C)=O)ccc1Nc1nccc(-c2cc(C#N)c3c(c2)[C@@](C)(CO)CN3)n1 [Compound 64]	1.8	18.2	~246	1230	160			
[2H]C([2H])(O)[C@@]1(C)CNc2c(C#N)cc(-c3ccnc(Nc4cc(C#N)ccc4C)n3)cc21 [Compound 136]	1.7	< 0.66	269	> 10000	219			
C[C@]1(CO)CNc2c(C#N)cc(-c3ccnc(Nc4cc(C#N)c(C5CCOCC5)cc4OCC4CC4)n3)cc21 [Compound 19]	27.5	38.9	1950	> 10000	284			
C[C@]1(CO)CNc2c(C#N)cc(-c3ccnc(Nc4cc(C#N)ccc4CCN4CC(F)C4)n3)cc21 [Compound 229]	7.6	22.4	251	> 10000	207			
CC1(CO)CNc2c(C#N)cc(-c3ccnc(Nc4cc(C#N)ccc4CN4CC(F)C4)n3)cc21 (stereo not drawn) [Compound 228]	5.4	19.5	120	> 10000	170			
COCCNCc1ccc(C)c(Nc2nccc(-c3cc(C#N)c4c(c3)[C@@](C)(CO)CN4)n2)c1 [Compound 217]	9.8	107	4270	~7940	151			
CC1(COc2ccc(C#N)cc2Nc2nccc(-c3cc(C#N)c4c(c3)[C@@](C)(CO)CN4)n2)COC1 [Compound 14]	5.5	21.4	170	> 10000	162			
CN1CCN(Cc2ccc(C#N)cc2Nc2nccc(-c3cc(C#N)c4c(c3)[C@@](C)(CO)CN4)n2)CC1 [Compound 226]	4.3	33.1	74	> 10000	298			
Cc1cc(C#CCN)c(C#N)cc1Nc1nccc(-c2cc(C#N)c3c(c2)[C@@](C)(CO)CN3)n1 [Compound 171]	1.1	34.7	955	> 10000	249			
Cc1ccc(C#N)cc1Nc1nccc(-c2cc(C#N)c3c(c2)[C@@](C)(COC(=O)[C@@H](N)C(C)C)CN3)n1 [Compound 139]	56.2	26.9	302	~8910	202			
Cc1cc(F)c(C(=O)NC2CCN(C)C2)cc1Nc1nccc(-c2cc(C#N)c3c(c2)[C@@](C)(CO)CN3)n1 (single isomer, unassigned) [Compound 167]	7.6				239	19.1	562	6170
Cc1cc(F)c(C(=O)NCC2COC2)cc1Nc1nccc(-c2cc(C#N)c3c(c2)[C@@](C)(CO)CN3)n1 [Compound 183]	9.1	7.1	501	> 10000	209			

SMILES	IC50 [1] [nM]	IC50 ([2]; Homo sapiens, L-363, 2 h) [nM]	IC50 ([3]; Homo sapiens, JJN-3, 96 h) [nM]	IC50 ([4]; Homo sapiens, KMS-12-BM, 96 h) [nM]	melting point [°C]	IC50 [2] [nM]	IC50 [3] [nM]	IC50 [4] [nM]
[2H]C1([2H])OC([2H])([2H])C([2H])([2H])N(C(=O)c2cccc(Nc3nccc(-c4cc(C#N)c5c(c4)[C@@](C)(CO)CN5)n3)c2C)C1([2H])[2H] [Compound 205]	6	11.2	162	> 10000	201			
C[C@]1(CO)CNc2c(C#N)cc(-c3ccnc(Nc4cc(C#N)ccc4CCCCN)n3)cc21 [Compound 184]	2.8	19.1	178	> 10000	134			
Cc1cc(CCN2CC(F)C2)c(C#N)cc1Nc1nccc(-c2cc(C#N)c3c(c2)[C@@](C)(CO)CN3)n1 [Compound 174]	3.5	2	71	> 10000	211			
Cc1cc(CCCN)c(C#N)cc1Nc1nccc(-c2cc(C#N)c3c(c2)[C@@](C)(CO)CN3)n1 [Compound 170]	1	2.3	81	~4680	207			
Cc1ccc(C#N)cc1Nc1nccc(-c2cc(C#N)c3c(c2)[C@@](C)(CO)CN3)n1 [Compound 130]	1.5				264	2.2	167	9770
Cc1ccc(C(=O)NC2CCN(C)C2)cc1Nc1nccc(-c2cc(C#N)c3c(c2)[C@@](C)(CO)CN3)n1 (mixture of isomers) [Compound 163]	3.5	33.1	437	> 10000	150			
Cc1cc(F)c(C(=O)NC2CCOC2)cc1Nc1nccc(-c2cc(C#N)c3c(c2)[C@@](C)(CO)CN3)n1 (single isomer, unassigned) [Compound 169]	8.7				256	8.3	~1000	> 10000
Cc1ccc(C#N)cc1Nc1nccc(-c2cc(C#N)c3c(c2)[C@@](C)(COC(=O)[C@H](N)Cc2ccccc2)CN3)n1 [Compound 140]	51.3	56.2	550	~9120	180			
Cc1c(CN2CC(C)OC(C)C2)cc(C#N)cc1Nc1nccc(-c2cc(C#N)c3c(c2)[C@@](C)(CO)CN3)n1 (stereo partly drawn) [Compound 194]	3.6	1.4	17	479	193			
Cc1c(Nc2nccc(-c3cc(C#N)c4c(c3)[C@@](C)(CO)CN4)n2)cc(C#N)cc1C(=O)N1CCN(C)CC1 [Compound 203]	6.6	1.8	14	~5890	294			
CC(C)Oc1ccc(C#N)cc1Nc1nccc(-c2cc(C#N)c3c(c2)[C@@](C)(CO)CN3)n1 [Compound 16]	15.5	15.5	258	550	162			
COCCOc1ccc(Cl)cc1Nc1nccc(-c2cc(C#N)c3c(c2)[C@@](C)(CO)CN3)n1 [Compound 45]	9.1	37.2	490	> 10000	169			
Cc1ccc(C#N)cc1Nc1nccc(-c2cc(C#N)c3c(c2)[C@](C)(CO)CN3)n1 [Compound 65]	4.1	103	1100	> 10000	218			
Cc1c(CO)cc(C#N)cc1Nc1nccc(-c2cc(C#N)c3c(c2)[C@@](C)(CO)CN3)n1 [Compound 193]	1.6	1.7	22	> 10000	188			
Cc1cc(C2CCCN(C)C2)c(C#N)cc1Nc1nccc(-c2cc(C#N)c3c(c2)[C@@](C)(CO)CN3)n1 (single isomer, unassigned) [Compound 178]	2	2.6	42	~891	230			
COc1cc(N2CCC(O)CC2)c(Cl)cc1Nc1nccc(-c2cc(C#N)c3c(c2)C(C)(C)CN3)n1 [Compound 105]	28.5	22.9	118	~6610	> 250			
